From patent publication US10092570B2 (Incyte Corporation, priority 2011, dated 2018)

Biological target: PI3Kδ (p110δ/p85α) (Homo sapiens (Human), UniProt O00329)
Experiment: Example A3: PI3Kδ scintillation proximity assay
Format: biochemical
Conditions: scintillation proximity assay, 20 μM ATP, 4 nM PI3Kδ; read-out: PI3Kδ SPA IC50
Experimental: [γ-^33P]ATP (10 mCi/mL) was purchased from Perkin-Elmer (Waltham, Mass.). […] PI3Kδ (p110δ/p85α) was purchased from Millipore (Bedford, Mass.). ATP, MgCl2, DTT, EDTA, MOPS and CHAPS were purchased from Sigma-Aldrich (St. Louis, Mo.). Wheat Germ Agglutinin (WGA) YSi SPA Scintillation Beads was purchased from GE healthcare life sciences (Piscataway, N.J.).
The kinase reaction was conducted in polystyrene 384-well matrix white plate from Thermo Fisher Scientific in a final volume of 25 μL. Inhibitors were first diluted serially in DMSO and added to the plate wells before the addition of other reaction components. The final concentration of DMSO in the assay was 0.5%. The PI3K assays were carried out at room temperature in 20 mM MOPS, pH 6.7, 10 mM MgCl2, 5 mM DTT and CHAPS 0.03%. Reactions were initiated by the addition of ATP, the final reaction mixture consisted of 20 μM PIP2, 20 μM ATP, 0.2 μCi [γ-^33P] ATP, 4 nM PI3Kδ. […] 25 mM EDTA, 400 μM ATP. The final concentration of SPA beads was 1.0 mg/mL. After the plate sealing, plates were shaken overnight at room temperature and centrifuged at 1800 rpm for 10 minutes, the radioactivity of the product was determined by scintillation counting on Topcount (Perkin-Elmer). IC50 determination was performed by fitting the curve of percent control activity versus the log of the inhibitor concentration using the GraphPad Prism 3.0 software.

Sequence of PI3Kδ (p110δ/p85α) (O00329 whole entry): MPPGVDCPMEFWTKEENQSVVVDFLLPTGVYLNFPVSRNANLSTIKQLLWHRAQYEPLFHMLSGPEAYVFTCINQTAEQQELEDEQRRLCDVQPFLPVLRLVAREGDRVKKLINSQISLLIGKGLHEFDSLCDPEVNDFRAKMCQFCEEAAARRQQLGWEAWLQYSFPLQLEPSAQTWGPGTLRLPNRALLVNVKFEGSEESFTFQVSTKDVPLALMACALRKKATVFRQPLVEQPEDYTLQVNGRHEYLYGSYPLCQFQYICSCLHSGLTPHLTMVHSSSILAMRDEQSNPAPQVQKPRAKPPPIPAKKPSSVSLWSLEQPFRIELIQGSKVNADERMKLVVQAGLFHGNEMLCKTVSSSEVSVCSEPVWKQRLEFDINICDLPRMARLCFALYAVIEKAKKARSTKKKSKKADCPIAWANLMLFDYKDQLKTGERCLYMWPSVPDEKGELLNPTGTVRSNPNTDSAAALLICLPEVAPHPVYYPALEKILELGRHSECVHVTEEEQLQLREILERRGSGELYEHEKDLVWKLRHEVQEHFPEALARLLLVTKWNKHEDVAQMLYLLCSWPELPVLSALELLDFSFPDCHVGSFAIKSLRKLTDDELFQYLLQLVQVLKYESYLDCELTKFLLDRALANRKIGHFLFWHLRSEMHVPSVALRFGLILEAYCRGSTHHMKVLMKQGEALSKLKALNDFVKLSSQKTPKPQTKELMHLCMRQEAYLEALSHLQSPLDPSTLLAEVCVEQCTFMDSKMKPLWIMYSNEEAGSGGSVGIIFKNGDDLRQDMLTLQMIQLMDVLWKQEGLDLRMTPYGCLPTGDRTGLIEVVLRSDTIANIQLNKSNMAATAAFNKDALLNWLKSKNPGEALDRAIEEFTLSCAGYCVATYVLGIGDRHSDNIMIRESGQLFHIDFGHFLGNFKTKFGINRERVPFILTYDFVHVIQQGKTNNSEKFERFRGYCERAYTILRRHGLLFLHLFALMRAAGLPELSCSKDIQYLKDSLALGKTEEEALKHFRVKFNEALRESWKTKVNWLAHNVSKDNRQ
Sequence of PI3Kδ (p110δ/p85α) (P27986 whole entry partner): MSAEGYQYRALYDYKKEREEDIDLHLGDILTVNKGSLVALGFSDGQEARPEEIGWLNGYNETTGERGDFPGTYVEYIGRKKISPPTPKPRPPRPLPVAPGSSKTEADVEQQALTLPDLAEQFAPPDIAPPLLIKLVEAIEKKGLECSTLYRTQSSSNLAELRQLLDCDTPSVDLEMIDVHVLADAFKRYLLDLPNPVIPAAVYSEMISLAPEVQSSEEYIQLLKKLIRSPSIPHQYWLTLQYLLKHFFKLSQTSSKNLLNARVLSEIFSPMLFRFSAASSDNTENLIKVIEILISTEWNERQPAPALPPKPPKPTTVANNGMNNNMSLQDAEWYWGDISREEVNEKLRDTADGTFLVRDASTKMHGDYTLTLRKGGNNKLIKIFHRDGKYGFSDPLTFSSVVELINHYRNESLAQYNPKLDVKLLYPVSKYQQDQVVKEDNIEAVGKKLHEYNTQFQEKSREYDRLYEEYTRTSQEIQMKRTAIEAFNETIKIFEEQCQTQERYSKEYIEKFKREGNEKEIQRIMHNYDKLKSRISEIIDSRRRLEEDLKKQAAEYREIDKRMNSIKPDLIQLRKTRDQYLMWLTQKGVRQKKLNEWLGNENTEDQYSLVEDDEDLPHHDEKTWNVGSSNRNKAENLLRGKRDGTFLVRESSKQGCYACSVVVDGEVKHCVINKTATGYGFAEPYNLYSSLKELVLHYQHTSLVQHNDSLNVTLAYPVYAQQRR

| Compound | IC50 [µM] |
| --- | --- |
| 4-[1-(4-Amino-3-methyl-1H-pyrazolo[3,4-d]pyrimidin-1-yl)ethyl]-6-chloro-2-[1-(2-hydroxyethyl)azetidin-3-yl]-3-methoxybenzonitrile-d4 [Example 297] | < 0.01 |
| COc1c(C(C)n2nc(C)c3c(N)ncnc32)cc(Cl)c(C)c1C1CN(C)C1 (racemic) [Example 5, 1-{1-[5-chloro-2-methoxy-4-methyl-3-(1-methylazetidin-3-yl)phenyl]ethyl}-3-methyl-1H-pyrazolo[3,4-d]pyrimidin-4-amine] | < 0.01 |
| CCN1CC(c2c(C)c(Cl)cc(C(C)n3nc(C)c4c(N)ncnc43)c2OC)C1 (racemic) [Example 6, 1-{1-[5-Chloro-3-(1-ethylazetidin-3-yl)-2-methoxy-4-methylphenyl]ethyl}-3-methyl-1H-pyrazolo[3,4-d]pyrimidin-4-amine] | < 0.01 |
| COc1c(C(C)n2nc(C)c3c(N)ncnc32)cc(Cl)c(C)c1C1CN(CC(C)C)C1 (racemic) [Example 7, 1-{1-[5-Chloro-3-(1-isobutylazetidin-3-yl)-2-methoxy-4-methylphenyl]ethyl}-3-methyl-1H-pyrazolo[3,4-d]pyrimidin-4-amine] | < 0.01 |
| COCCN1CC(c2c(C)c(Cl)cc(C(C)n3nc(C)c4c(N)ncnc43)c2OC)C1 (racemic) [Example 9, 1-(1-{5-Chloro-2-methoxy-3-[1-(2-methoxyethyl)azetidin-3-yl]-4-methylphenyl}ethyl)-3-methyl-1H-pyrazolo[3,4-d]pyrimidin-4-amine] | < 0.01 |
| CNC(=O)N1CC(c2c(C)c(Cl)cc(C(C)n3nc(C)c4c(N)ncnc43)c2OC)C1 (racemic) [Example 10, 3-{3-[1-(4-Amino-3-methyl-1H-pyrazolo[3,4-d]pyrimidin-1-yl)ethyl]-5-chloro-2-methoxy-6-methylphenyl}-N-methylazetidine-1-carboxamide] | < 0.01 |
| CCOc1c(C(C)n2nc(I)c3c(N)ncnc32)cc(Cl)c(C)c1-c1ccc(C(=O)N(C)C)nc1 (racemic) [Example 15, 5-{3-[1-(4-Amino-3-iodo-1H-pyrazolo[3,4-d]pyrimidin-1-yl)ethyl]-5-chloro-2-ethoxy-6-methylphenyl}-N,N-dimethylpyridine-2-carboxamide] | < 0.01 |
| CNC(=O)c1cc(-c2c(C)c(Cl)cc(C(C)n3nc(C)c4c(N)ncnc43)c2OC)ccn1 (racemic) [Example 17, 4-(3-(1-(4-amino-3-methyl-1H-pyrazolo[3,4-d]pyrimidin-1-yl)ethyl)-5-chloro-2-methoxy-6-methylphenyl)-N-methylpicolinamide] | < 0.01 |
| COc1c(C(C)n2nc(C)c3c(N)ncnc32)cc(Cl)c(C)c1-c1ccnc(C(=O)NCCO)c1 (racemic) [Example 18, 4-{3-[1-(4-Amino-3-methyl-1H-pyrazolo[3,4-d]pyrimidin-1-yl)ethyl]-5-chloro-2-methoxy-6-methylphenyl}-N-(2-hydroxyethyl)pyridine-2-carboxamide] | < 0.01 |
| COc1c(C(C)n2ccc(=O)c3c(N)ncnc32)cc(Cl)c(C)c1-c1cccnc1 (racemic) [Example 28, 4-Amino-8-[1-(5-chloro-2-methoxy-4-methyl-3-pyridin-3-ylphenyl)ethyl]pyrido[2,3-d]pyrimidin-5(8H)-one bis(trifluoroacetate)] | < 0.01 |
| COc1c(C(C)n2ccc(=O)c3c(N)ncnc32)cc(Cl)c(C)c1C1CN(C(C)C)C1 (racemic) [Example 34, 4-Amino-8-{1-[5-chloro-3-(1-isopropylazetidin-3-yl)-2-methoxy-4-methylphenyl]ethyl}pyrido[2,3-d]pyrimidin-5(8H)-one] | < 0.01 |
| CCNC(=O)c1c(C)c(Cl)cc(C(C)n2nc(C)c3c(N)ncnc32)c1-c1cc(F)cc(F)c1 (racemic) [Example 37, 6-[1-(4-amino-3-methyl-1H-pyrazolo[3,4-d]pyrimidin-1-yl)ethyl]-4-chloro-N-ethyl-3′,5′-difluoro-3-methylbiphenyl-2-carboxamide] | < 0.01 |
| COc1c(C(C)n2cc(C)c3c(N)ncnc32)cc(Cl)c(C)c1-c1ccc(C(=O)N(C)C)nc1 (racemic) [Example 42, 5-{3-[1-(4-Amino-5-methyl-7H-pyrrolo[2,3-d]pyrimidin-7-yl)ethyl]-5-chloro-2-methoxy-6-methylphenyl}-N,N-dimethylpyridine-2-carboxamide] | < 0.01 |
| CCOc1c(C(C)n2nc(C)c3c(N)ncnc32)cc(Cl)c(C#N)c1-c1cncc(S(C)(=O)=O)c1 (racemic) [Example 43, 4-[1-(4-amino-3-methyl-1H-pyrazolo[3,4-d]pyrimidin-1-yl)ethyl]-6-chloro-3-ethoxy-2-[5-(methylsulfonyl)pyridin-3-yl]benzonitrile] | < 0.01 |
| CCOc1c(C(C)n2nc(C)c3c(N)ncnc32)cc(Cl)c(C#N)c1-c1ccc(C(=O)N(C)C)nc1 (racemic) [Example 44, 5-(3-(1-(4-amino-3-methyl-1H-pyrazolo[3,4-d]pyrimidin-1-yl)ethyl)-5-chloro-6-cyano-2-ethoxyphenyl)-N,N-dimethylpicolinamide] | < 0.01 |
| CCOc1c(C(C)n2ccc(=O)c3c(N)ncnc32)cc(Cl)c(C#N)c1-c1ccc(C(=O)N(C)C)nc1 (racemic) [Example 45, 5-{3-[1-(4-amino-5-oxopyrido[2,3-d]pyrimidin-8(5H)-yl)ethyl]-5-chloro-6-cyano-2-ethoxyphenyl}-N,N-dimethylpyridine-2-carboxamide] | < 0.01 |
| CCOc1c(C(C)n2ccc(=O)c3c(N)ncnc32)cc(Cl)c(C#N)c1-c1cncc(S(C)(=O)=O)c1 (racemic) [Example 46, 4-(1-(4-amino-5-oxopyrido[2,3-d]pyrimidin-8(5H)-yl)ethyl)-6-chloro-3-ethoxy-2-(5-(methylsulfonyl)pyridin-3-yl)benzonitrile] | < 0.01 |
| CCOc1c(C(C)n2nc(-c3ccc(C(=O)NC)nc3)c3c(N)ncnc32)cc(Cl)c(C)c1-c1ccc(C(=O)N(C)C)nc1 (racemic) [Example 59, 5-{3-[1-(4-amino-3-{6-[(methylamino)carbonyl]pyridin-3-yl}-1H-pyrazolo[3,4-d]pyrimidin-1-yl)ethyl]-5-chloro-2-ethoxy-6-methylphenyl}-N,N-dimethylpyridine-2-carboxamide tris(trifluoroacetate)] | < 0.01 |
| COc1c(C(C)n2nc(C)c3c(N)ncnc32)cc(Cl)c(C)c1C1CN(C2COC2)C1 (racemic) [Example 63, 1-{1-[5-chloro-2-methoxy-4-methyl-3-(1-oxetan-3-ylazetidin-3-yl)phenyl]ethyl}-3-methyl-1H-pyrazolo[3,4-d]pyrimidin-4-amine] | < 0.01 |
| COc1c(C(C)n2nc(C)c3c(N)ncnc32)cc(Cl)c(C)c1C1CN(C2CCOCC2)C1 (racemic) [Example 64, 1-(1-{5-chloro-2-methoxy-4-methyl-3-[1-(tetrahydro-2H-pyran-4-yl)azetidin-3-yl]phenyl}ethyl)-3-methyl-1H-pyrazolo[3,4-d]pyrimidin-4-amine] | < 0.01 |
| COc1c(C(C)n2nc(C)c3c(N)ncnc32)cc(Cl)c(F)c1C1CN(CCO)C1 (racemic) [Example 71, 2-(3-{3-[1-(4-Amino-3-methyl-1H-pyrazolo[3,4-d]pyrimidin-1-yl)ethyl]-5-chloro-6-fluoro-2-methoxyphenyl}azetidin-1-yl)ethanol] | < 0.01 |
| CCOc1c(C(C)n2nc(C(F)F)c3c(N)ncnc32)cc(Cl)c(C)c1-c1ccc(C(=O)N(C)C)nc1 (racemic) [Example 82, 5-(3-{1-[4-Amino-3-(difluoromethyl)-1H-pyrazolo[3,4-d]pyrimidin-1-yl]ethyl}-5-chloro-2-ethoxy-6-methylphenyl)-N,N-dimethylpyridine-2-carboxamide bis(trifluoroacetate)] | < 0.01 |
| CCNC(=O)c1c(C)c(Cl)cc(C(C)n2nc(-c3cn[nH]c3)c3c(N)ncnc32)c1OCC (racemic) [Example 87, 3-{1-[4-Amino-3-(1H-pyrazol-4-yl)-1H-pyrazolo[3,4-d]pyrimidin-1-yl]ethyl}-5-chloro-2-ethoxy-N-ethyl-6-methylbenzamide] | < 0.01 |
| CCNC(=O)c1c(C)c(Cl)cc(C(C)n2nc(-c3cc(O)cc(F)c3)c3c(N)ncnc32)c1OCC (racemic) [Example 88, 3-{1-[4-Amino-3-(3-fluoro-5-hydroxyphenyl)-1H-pyrazolo[3,4-d]pyrimidin-1-yl]ethyl}-5-chloro-2-ethoxy-N-ethyl-6-methylbenzamide] | < 0.01 |
| CCNC(=O)c1c(C)c(Cl)cc(C(C)n2nc(-c3ccc4oc(N)nc4c3)c3c(N)ncnc32)c1OCC (racemic) [Example 89, 3-(1-(4-Amino-3-(2-aminobenzo[d]oxazol-5-yl)-1H-pyrazolo[3,4-d]pyrimidin-1-yl)ethyl)-5-chloro-2-ethoxy-N-ethyl-6-methylbenzamide] | < 0.01 |
| CCNC(=O)c1c(C)c(Cl)cc(C(C)n2nc(-c3ccc4nc(N)sc4c3)c3c(N)ncnc32)c1OCC (racemic) [Example 90, 3-{1-[4-Amino-3-(2-amino-1,3-benzothiazol-6-yl)-1H-pyrazolo[3,4-d]pyrimidin-1-yl]ethyl}-5-chloro-2-ethoxy-N-ethyl-6-methylbenzamide] | < 0.01 |
